According to the supplement of paper PMC10307832:

How the values were obtained:
Assay in all cases: relative viability (nuclei count vs DMSO), 5 days (fraction); higher = more cells survive
COR-L23 = system: COR-L23
In short: (§1)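 Relative viability is defined as nuclei in treated wells over nuclei in vehicle wells. Duplicate plates were run and medians reported. Lung cancer cell lines in 1536-well plates were dosed by pin tool one day after seeding, with one drug or with a fixed anchor-drug dose plus five library-drug doses (not always all listed) in √10 steps, and nuclei were counted after 5 days.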

H3255 = system: H3255
In short: as §1

HCC-15 = system: HCC-15
In short: as §1

HCC-366 = system: HCC-366
In short: as §1

HCC-827 = system: HCC-827
In short: as §1

LC-2-ad = system: LC-2-ad
In short: as §1

LCLC-103H = system: LCLC-103H
In short: as §1

LXF-289 = system: LXF-289
In short: as §1

NCI-H1437 = system: NCI-H1437
In short: as §1

NCI-H1666 = system: NCI-H1666
In short: as §1

NCI-H1975 = system: NCI-H1975
In short: as §1

NCI-H2009 = system: NCI-H2009
In short: as §1

NCI-H2085 = system: NCI-H2085
In short: as §1

NCI-H2087 = system: NCI-H2087
In short: as §1

NCI-H2228 = system: NCI-H2228
In short: as §1

NCI-H2342 = system: NCI-H2342
In short: as §1

NCI-H23 = system: NCI-H23
In short: as §1

NCI-H661 = system: NCI-H661
In short: as §1

PC-14 = system: PC-14
In short: as §1

PC-3 [JPC-3] = system: PC-3 [JPC-3]
In short: as §1

SK-MES-1 = system: SK-MES-1
In short: as §1

UMC-11 = system: UMC-11
In short: as §1

ABC-1 = system: ABC-1
In short: as §1

## CN1CCN(CCOc2cc(OC3CCOCC3)c3c(Nc4c(Cl)ccc5c4OCO5)ncnc3c2)CC1 [Saracatinib] + CC(=O)Nc1cccc(-n2c(=O)n(C3CC3)c(=O)c3c(Nc4ccc(I)cc4F)n(C)c(=O)c(C)c32)c1 [Trametinib] (partner 0.02 µM)
COR-L23; first compound 0.02 µM
  relative viability: 0.58
COR-L23; first compound 0.2 µM
  relative viability: 0.53
COR-L23; first compound 0.6325 µM
  relative viability: 0.574
COR-L23; first compound 2 µM
  relative viability: 0.559
H3255; first compound 0.02 µM
  relative viability: 0.636
H3255; first compound 0.2 µM
  relative viability: 0.665
H3255; first compound 0.6325 µM
  relative viability: 0.663
H3255; first compound 2 µM
  relative viability: 0.27
HCC-15; first compound 0.02 µM
  relative viability: 0.44
HCC-15; first compound 0.2 µM
  relative viability: 0.371
HCC-15; first compound 0.6325 µM
  relative viability: 0.455
HCC-15; first compound 2 µM
  relative viability: 0.388
HCC-366; first compound 0.02 µM
  relative viability: 0.337
HCC-366; first compound 0.2 µM
  relative viability: 0.128
HCC-366; first compound 0.6325 µM
  relative viability: 0.216
HCC-366; first compound 2 µM
  relative viability: 0.202
HCC-827; first compound 0.02 µM
  relative viability: 0.542
HCC-827; first compound 0.2 µM
  relative viability: 0.306
HCC-827; first compound 0.6325 µM
  relative viability: 0.225
HCC-827; first compound 2 µM
  relative viability: 0.156
LC-2-ad; first compound 0.02 µM
  relative viability: 0.9
LC-2-ad; first compound 0.2 µM
  relative viability: 0.858
LC-2-ad; first compound 0.6325 µM
  relative viability: 0.993
LC-2-ad; first compound 2 µM
  relative viability: 0.866
LCLC-103H; first compound 0.02 µM
  relative viability: 0.716
LCLC-103H; first compound 0.2 µM
  relative viability: 0.58
LCLC-103H; first compound 0.6325 µM
  relative viability: 0.751
LCLC-103H; first compound 2 µM
  relative viability: 0.656
LXF-289; first compound 0.02 µM
  relative viability: 0.677
LXF-289; first compound 0.2 µM
  relative viability: 0.644
LXF-289; first compound 0.6325 µM
  relative viability: 0.655
LXF-289; first compound 2 µM
  relative viability: 0.685
NCI-H1437; first compound 0.02 µM
  relative viability: 0.652
NCI-H1437; first compound 0.2 µM
  relative viability: 0.538
NCI-H1437; first compound 0.6325 µM
  relative viability: 0.733
NCI-H1437; first compound 2 µM
  relative viability: 0.538
NCI-H1666; first compound 0.02 µM
  relative viability: 0.829
NCI-H1666; first compound 0.2 µM
  relative viability: 0.939
NCI-H1666; first compound 0.6325 µM
  relative viability: 1.06
NCI-H1666; first compound 2 µM
  relative viability: 0.823
NCI-H1975; first compound 0.02 µM
  relative viability: 0.37
NCI-H1975; first compound 0.2 µM
  relative viability: 0.412
NCI-H1975; first compound 0.6325 µM
  relative viability: 0.391
NCI-H1975; first compound 2 µM
  relative viability: 0.267
NCI-H2009; first compound 0.02 µM
  relative viability: 0.274
NCI-H2009; first compound 0.2 µM
  relative viability: 0.207
NCI-H2009; first compound 0.6325 µM
  relative viability: 0.209
NCI-H2009; first compound 2 µM
  relative viability: 0.175
NCI-H2085; first compound 0.02 µM
  relative viability: 0.482
NCI-H2085; first compound 0.2 µM
  relative viability: 0.541
NCI-H2085; first compound 0.6325 µM
  relative viability: 0.497
NCI-H2085; first compound 2 µM
  relative viability: 0.404
NCI-H2087; first compound 0.02 µM
  relative viability: 0.24
NCI-H2087; first compound 0.2 µM
  relative viability: 0.142
NCI-H2087; first compound 0.6325 µM
  relative viability: 0.23
NCI-H2087; first compound 2 µM
  relative viability: 0.194
NCI-H2228; first compound 0.02 µM
  relative viability: 0.616
NCI-H2228; first compound 0.2 µM
  relative viability: 0.425
NCI-H2228; first compound 0.6325 µM
  relative viability: 0.703
NCI-H2228; first compound 2 µM
  relative viability: 0.465
NCI-H2342; first compound 0.02 µM
  relative viability: 0.763
NCI-H2342; first compound 0.2 µM
  relative viability: 0.789
NCI-H2342; first compound 0.6325 µM
  relative viability: 0.944
NCI-H2342; first compound 2 µM
  relative viability: 0.817
NCI-H23; first compound 0.02 µM
  relative viability: 0.344
NCI-H23; first compound 0.6325 µM
  relative viability: 0.351
NCI-H23; first compound 2 µM
  relative viability: 0.218
NCI-H661; first compound 0.02 µM
  relative viability: 0.568
NCI-H661; first compound 0.2 µM
  relative viability: 0.572
NCI-H661; first compound 0.6325 µM
  relative viability: 0.6
NCI-H661; first compound 2 µM
  relative viability: 0.362
PC-14; first compound 0.02 µM
  relative viability: 0.605
PC-14; first compound 0.2 µM
  relative viability: 0.275
PC-14; first compound 0.6325 µM
  relative viability: 0.0993
PC-14; first compound 2 µM
  relative viability: 0.0574
PC-3 [JPC-3]; first compound 0.02 µM
  relative viability: 0.758
PC-3 [JPC-3]; first compound 0.2 µM
  relative viability: 0.587
PC-3 [JPC-3]; first compound 0.6325 µM
  relative viability: 0.534
PC-3 [JPC-3]; first compound 2 µM
  relative viability: 0.494
SK-MES-1; first compound 0.02 µM
  relative viability: 0.548
SK-MES-1; first compound 0.2 µM
  relative viability: 0.6
SK-MES-1; first compound 0.6325 µM
  relative viability: 0.347
SK-MES-1; first compound 2 µM
  relative viability: 0.256
UMC-11; first compound 0.02 µM
  relative viability: 0.763
UMC-11; first compound 0.2 µM
  relative viability: 0.586
UMC-11; first compound 0.6325 µM
  relative viability: 0.911
UMC-11; first compound 2 µM
  relative viability: 0.641

## CN1CCN(CCOc2cc(OC3CCOCC3)c3c(Nc4c(Cl)ccc5c4OCO5)ncnc3c2)CC1 [Saracatinib] + C[C@@H](Oc1cc(-c2cnn(C3CCNCC3)c2)cnc1N)c1c(Cl)ccc(F)c1Cl [Crizotinib] (partner 1 µM)
ABC-1; first compound 0.02 µM
  relative viability: 1.1
ABC-1; first compound 0.2 µM
  relative viability: 1.06
ABC-1; first compound 0.6325 µM
  relative viability: 0.918
ABC-1; first compound 2 µM
  relative viability: 0.705
COR-L23; first compound 0.02 µM
  relative viability: 0.65
COR-L23; first compound 0.2 µM
  relative viability: 0.52
COR-L23; first compound 0.6325 µM
  relative viability: 0.658
COR-L23; first compound 2 µM
  relative viability: 0.558
H3255; first compound 0.02 µM
  relative viability: 0.865
H3255; first compound 0.2 µM
  relative viability: 0.952
H3255; first compound 0.6325 µM
  relative viability: 0.664
H3255; first compound 2 µM
  relative viability: 0.269
HCC-15; first compound 0.02 µM
  relative viability: 0.817
HCC-15; first compound 0.2 µM
  relative viability: 0.693
HCC-15; first compound 0.6325 µM
  relative viability: 0.805
HCC-15; first compound 2 µM
  relative viability: 0.765
HCC-366; first compound 0.02 µM
  relative viability: 0.547
HCC-366; first compound 0.6325 µM
  relative viability: 0.435
HCC-366; first compound 2 µM
  relative viability: 0.182
HCC-827; first compound 0.02 µM
  relative viability: 0.943
HCC-827; first compound 0.2 µM
  relative viability: 0.452
HCC-827; first compound 0.6325 µM
  relative viability: 0.247
HCC-827; first compound 2 µM
  relative viability: 0.193
LC-2-ad; first compound 0.02 µM
  relative viability: 0.434
LC-2-ad; first compound 0.2 µM
  relative viability: 0.41
LC-2-ad; first compound 0.6325 µM
  relative viability: 0.513
LC-2-ad; first compound 2 µM
  relative viability: 0.371
LCLC-103H; first compound 0.02 µM
  relative viability: 1.11
LCLC-103H; first compound 0.2 µM
  relative viability: 0.817
LCLC-103H; first compound 0.6325 µM
  relative viability: 1.13
LCLC-103H; first compound 2 µM
  relative viability: 0.976
LXF-289; first compound 0.02 µM
  relative viability: 0.845
LXF-289; first compound 0.2 µM
  relative viability: 0.775
LXF-289; first compound 0.6325 µM
  relative viability: 0.847
LXF-289; first compound 2 µM
  relative viability: 0.892
NCI-H1437; first compound 0.02 µM
  relative viability: 0.912
NCI-H1437; first compound 0.2 µM
  relative viability: 0.866
NCI-H1437; first compound 0.6325 µM
  relative viability: 0.865
NCI-H1437; first compound 2 µM
  relative viability: 0.943
NCI-H1666; first compound 0.02 µM
  relative viability: 1.04
NCI-H1666; first compound 0.2 µM
  relative viability: 0.965
NCI-H1666; first compound 0.6325 µM
  relative viability: 1.18
NCI-H1666; first compound 2 µM
  relative viability: 0.926
NCI-H1975; first compound 0.02 µM
  relative viability: 1.02
NCI-H1975; first compound 0.6325 µM
  relative viability: 0.823
NCI-H1975; first compound 2 µM
  relative viability: 0.515
NCI-H2009; first compound 0.02 µM
  relative viability: 1.03
NCI-H2009; first compound 0.2 µM
  relative viability: 0.756
NCI-H2009; first compound 0.6325 µM
  relative viability: 0.896
NCI-H2009; first compound 2 µM
  relative viability: 0.691
NCI-H2085; first compound 0.02 µM
  relative viability: 0.763
NCI-H2085; first compound 0.2 µM
  relative viability: 0.761
NCI-H2085; first compound 0.6325 µM
  relative viability: 0.766
NCI-H2085; first compound 2 µM
  relative viability: 0.755
NCI-H2087; first compound 0.02 µM
  relative viability: 0.993
NCI-H2087; first compound 0.2 µM
  relative viability: 0.697
NCI-H2087; first compound 0.6325 µM
  relative viability: 1.07
NCI-H2087; first compound 2 µM
  relative viability: 1.02
NCI-H2228; first compound 0.02 µM
  relative viability: 0.477
NCI-H2228; first compound 0.2 µM
  relative viability: 0.326
NCI-H2228; first compound 0.6325 µM
  relative viability: 0.306
NCI-H2228; first compound 2 µM
  relative viability: 0.213
NCI-H23; first compound 0.02 µM
  relative viability: 0.528
NCI-H23; first compound 0.6325 µM
  relative viability: 0.557
NCI-H23; first compound 2 µM
  relative viability: 0.419
NCI-H661; first compound 0.02 µM
  relative viability: 1.08
NCI-H661; first compound 0.6325 µM
  relative viability: 1.03
NCI-H661; first compound 2 µM
  relative viability: 0.864
PC-14; first compound 0.02 µM
  relative viability: 0.993
PC-14; first compound 0.2 µM
  relative viability: 0.555
PC-14; first compound 0.6325 µM
  relative viability: 0.424
PC-14; first compound 2 µM
  relative viability: 0.167
PC-3 [JPC-3]; first compound 0.02 µM
  relative viability: 0.997
PC-3 [JPC-3]; first compound 0.2 µM
  relative viability: 0.983
PC-3 [JPC-3]; first compound 0.6325 µM
  relative viability: 0.942
PC-3 [JPC-3]; first compound 2 µM
  relative viability: 0.582
SK-MES-1; first compound 0.02 µM
  relative viability: 1.05
SK-MES-1; first compound 0.2 µM
  relative viability: 0.858
SK-MES-1; first compound 0.6325 µM
  relative viability: 0.825
SK-MES-1; first compound 2 µM
  relative viability: 0.517
UMC-11; first compound 0.02 µM
  relative viability: 0.571
UMC-11; first compound 0.6325 µM
  relative viability: 0.677
UMC-11; first compound 2 µM
  relative viability: 0.386
